We go through six molecules from patent publication US20130129713A1, “METHOD OF ANTIGEN LOADING FOR IMMUNOTHERAPY” (IEO - ISTITUTO EUROPEO DI ONCOLOGIA S.R.L., priority 2010, published 2013).

Data set [1] concerns GJs dependent intercellular communication, Mel-04 to human MoDC. Briefly: FACS dye transfer assay, human cells: Mel-04 to MoDC. The data set is classed as cell-based. Conditions: co-culture in presence of heptanol (3.5 mM). From the text: FIG. 18. Salmonella infection upregulates GJs dependent intercellular communication in a melanoma-MoDC coculture model system. Human monocyte-derived DCs (MoDCs) were labeled with DDAO and then extensively washed.

Data set [2] relates to GJs-dependent intercellular communication, SK-Mel-24 to Mo-DC. The format is cell-based, human.
In data set [3] the test system is GJs dependent intercellular communication between SK-Mel-24 cells. Briefly: Dye transfer between SK-Mel-24 melanoma cells. The data set is classed as cell-based, human. The following applies: in the presence of heptanol. How it is done: FIG. 20. Salmonella infection up-regulates GJs dependent intercellular communication in SK-Mel-24 melanoma cell line. In this experiment the dye transfer was performed from melanoma to melanoma cells (SK-Mel-24). The increase in dye transfer from Salmonella infected to non-infected SK-Mel-24 cells is clear as compared to that from non-infected to non-infected cells. The right panel represents the same experiment performed in the presence of Heptanol, an inhibitor of GJ dependent intercellular communication. Data are expressed as percentage of SK-Mel-24 calcein positive cells.

For data set [4], the system named is SK-Mel24 and other target cell lines. Briefly: CTL generation and cytotoxicity (DELFIA cytotoxicity kit). The data set is classed as cell-based, human. Conditions: Mo-DC/SL-infected SK-Mel24 coculture in presence of Heptanol (3,5 mM). How it is done: FIG. 24. SL-infected SK-Mel-24 loaded MoDC generate CTLs able to recognize epitopes shared among melanoma cells. CTL generated as described in materials and methods were tested for their antigen-specific cytotoxicity using DELFIA cytotoxicity kit. Target cells were: SK-Mel24, melanoma cell line, HLA negative cell line, HT29 (colon carcinoma).
Mo-DCs obtained from the same donor were loaded with SL-infected SK-Mel24 (SL-SK), and cultured, with purified CD8^+ T cells. Proliferating cells were expanded for 7-10 days in complete medium supplemented with 20 U/ml of rhIL-2. Cytotoxic properties of generated CTLs were tested against selected targets.
Purified CD8 T cells by magnetic cell sorting were cultured with MoDCs previously cocultured with infected or non-infected Sk-Mel24 in the presence or absence of 3,5 mM heptanol. After 24-48h cultures were supplemented with 20 U/ml of rhIL-2 and after 7-10 days CTLs were either subjected to a second round of stimulation or assayed for their cytotoxic activity. Melanoma specific cytotoxicity was measured by using DELFIA cytotoxicity Kit (Perkin Elmer) and lysosomal-associated membrane protein-1 (CD107a) mobilization was performed by using BD FastImmune CD107a reagent (BD Bioscience), according to manufacturer's instructions.

Data set [5] relates to gap junctions between B16 cells and DCs. Briefly: FACS dye transfer assay, murine cells (calcein-AM from B16 to DDAO-labeled DCs). The following applies: co-culture in presence of heptanol (3.5 mM).
Protocol: B16 cells were infected or not with Salmonella, pulsed with the GJ-diffusible dye Calcein-AM and incubated with DDAO-labeled DCs, in the presence or absence of heptanol. One h later the % of cells double positive for DDAO and Calcein-AM, representing the DCs that received the dye from tumor cells, was evaluated by FACS (Black bars).
FACS assay murine cells. DCs were labeled with 10 μM of the dye 7-hydroxy-9H(I,3-dichloro-9,9-dimethylacridin-2-one) (DDAO, Molecular Probes) for 15 minutes at R.T. in the dark and then extensively washed with PBS. B16 cells were infected or not with Salmonella and after 24 hours were labeled with 0.5 μM calcein-acetoxymethylester (calcein-AM; Molecular Probes) in serum-free medium for 30 minutes at 37° C. and then co-cultured with DCs at a ratio of 2:1. Calcein transfer between tumor cells and DCs was evaluated by cytofluorimetry. The co-culture of B16/DCs was carried out in the presence or absence of (3.5 mM) Heptanol (Sigma).
For another data set, the system named is B16-OVA cells / DCs. Briefly: In vitro cross-presentation assay (K^bOVA on CD11c+ DCs). The format is cell-based, murine. How it is done: B16 and B16-OVA cells alone or together with DCs were treated or not with Salmonella and 24 hours later were stained with 5 μM of Carboxyfluorescein Succinimidyl ester (CF SE) for 20 minutes at 37° C. in the dark and then washed with cold PBS. Where stated, B16 and B16-OVA cells were treated with 10 μM Lactacystin (Sigma) overnight. […] After 24 hours cross-presentation of OVA peptide by DCs was analyzed by cytofluorimetry on CD11c^+ cells using an antibody that recognizes the OVA SIINFEKL peptide in association with MHC I (anti K^bOVA, 25-D1.16).

Data set [6] concerns Connexin (Cx) 43 expression in B16 cells. Nature of the data set: Cx43 expression in B16 cells after infection or PAMP/IFN-g treatment (immunofluorescence, Western blot). The format is cell-based, murine. How it is done: Single bacterial colonies were grown overnight and restarted the next day to reach an A600 nm=0.6 corresponding to 0.6×10^9 CFU/mL. Murine and human melanoma cells were incubated with bacteria for 2 h, at a ratio of 1:50 (cell/bacteria), in the appropriate medium without antibiotics. Cells were washed with PBS and incubated in medium supplemented with 50 μg/mL gentamicin for 12 or 24 h in order to kill extracellular bacteria, with or without IFN-g(100 U/ml).
B16 cells and DC1 DCs were plated in 6-well plates (2×10^5 cells/well) and grown for 18 h. Cells were incubated with PAMPs in complete medium with or without IFN-g(100 U/ml) for 24 hours. The PAMPs used were LPS (1 μg/ml, Sigma), flagellin (0.1 μg/ml, Alexis) and LTA (10 μg/ml, Sigma).
24 hour after infection or treatment with PAMPs, melanoma cells were scraped in ELB buffer (250 mM NaCl, 0.5% Nonidet P-40, 50 mM HEPES [pH 7.0], 5 mM EDTA) containing 1 mM dithiothreitol, 0.5 mM phenylmethylsulfonyl fluoride, and protease inhibitors. Cell lysates were run on SDS page and transferred on Immobilon PVDF membranes. Membranes were probed with a polyclonal rabbit-anti-Cx43 antibody (Sigma) or with a monoclonal mouse-anti-Cx43 antibody (Zymed) or with mouse-anti-vinculin antibody (Sigma) overnight at 4° C. and incubated with anti-mouse horseradish peroxidase-conjugated IgG (Calbiochem) or with anti-rabbit horseradish peroxidase-conjugated IgG (BioRad) antibodies for 1 h. Visualization was carried out with ECL (GE Healthcare). Bands were quantified by densitometry using NIH Image-based software Scion Image (Scion Corporation).
B16 cells were plated onto coverslips (5×10^4 cells/coverslip) and grown for 18 h. Cells were infected with Salmonella. After 24 hours the cells were fixed in 4% (w/v) paraformaldehyde in PBS for 15 min. Blocking and permeabilization were carried out incubating the cells in PBS, 3% (w/v) bovine serum albumin (BSA) and 0.1% (w/v) Triton X-100 for 20 min. The cells were then stained with polyclonal rabbit-anti-Cx43 primary antibody (Sigma, 1:2000) and with an anti-rabbit-Cy3-conjugated secondary antibody (Jackson ImmunoResearch laboratories, 1:400). Cell nuclei were stained with 4′,6-diamidino-2-phenylindole. Confocal microscopy was carried out using a Leica TCS-SP2 (Leica Microsystem).
On the technique in general: Immunoblotting shows a protein as a band on a membrane.

Setting [7] is: B16 cells incubated with purified bacterial components, Western blot 24 h.

Consider `CCCCCCCO` [heptanol], for which, in data set [1], the “calcein dye transfer from Mel-04 to MoDC” value was “capable of inhibiting the transfer”. Also, the “calcein transfer from SK-Mel-24 to Mo-DC” value in data set [2] is “most of the calcein transfer was inhibited”. Moreover, the “dye transfer from infected to non infected SK-Mel-24 cells” value in data set [3] is given as “inhibited”. Moreover, the “cytotoxicity of generated CTLs against the specific target” value in data set [4] is reported as “unable to lyse the specific target”. In addition, the “transfer of calcein from B16 cells to DCs” value in data set [5] is “completely abolished the transfer of calcein”. Also, the “presentation of OVA peptide (K^bOVA) by DCs” value in the data set on B16-OVA cells / DCs (infected B16-OVA + mature DCs 24 h, Heptanol (3.5 mM)) is listed as “completely abolished the presentation of the peptide”.

In the case of `CC(=O)N[C@@H](CSC(=O)[C@]1([C@@H](O)C(C)C)NC(=O)[C@H](C)[C@@H]1O)C(=O)O` [lactacystin], the “DC surface exposure of the K^b-OVA complex” value in the data set on B16-OVA cells / DCs (B16-OVA pretreated with 10 μM Lactacystin overnight) is on record as “prevented the DC surface exposure of the K^b-OVA complex”.

For the molecule flagellin, the Cx43 expression entry in data set [6] (setting [7]) was “same upregulation of Cx43”.

With lipoteichoic acid [LTA], the Cx43 expression result in data set [6] (setting [7]) is listed as “same upregulation of Cx43”.

Consider lypopolysaccharide [LPS], for which the Cx43 expression result in data set [6] (setting [7]) was “same upregulation of Cx43”.

B1: IFN-g: inflammatory cytokine gamma-IFN (protein, UniProt P01579 24-161, looked up)
Interferon gamma: QDPYVKEAENLKKYFNAGHSDVADNGTLFLGILKNWKEESDRKIMQSQIVSFYFKLFKNFKDDQSIQKSVETIKEDMNVKFFNSNKKKRDDFEKLTNYSVTDLNVQRKAIHELIQVMAELSPAAKTGKRKRSQMLFRG
With B1, in data set [6] (B16 cells, IFN-g alone (100 U/ml)), the Cx43 expression result is “upregulated Cx43”. In addition, in data set [6] (B16 cells, IFN-g together with Salmonella or bacterial components), the “Cx43 expression, combination effect” value was “acted in synergy with the bacterial components”.
